Test results reported in ChEMBL document CHEMBL4507292 (2021).

Key:
[1] = biological target: T1, D(1B) dopamine receptor (Homo sapiens, UniProt P21918); assay: GPCRScan assay: inhibition of D5; set-up: radioligand conc. used [nm] 2.0 – 3.0, parental cells HEKT
[2] = biological target: Activin receptor type-1B (Homo sapiens) (UniProt P36896); conditions: Compound concentration 1000.0 nM
[3] = biological target: Atypical kinase COQ8A, mitochondrial (Homo sapiens) (UniProt Q8NI60); conditions: Compound concentration 1000.0 nM
[4] = test system: ALK tyrosine kinase receptor (Homo sapiens), Q9UM73 [C1156Y]; conditions: Compound concentration 1000.0 nM
[5] = biological target: Mitotic checkpoint serine/threonine-protein kinase BUB1 (Homo sapiens) (UniProt O43683); conditions: Compound concentration 1000.0 nM
[6] = biological target: Cyclin-dependent kinase 7 (Homo sapiens) (UniProt P50613); conditions: Compound concentration 1000.0 nM
[7] = biological target: Cyclin-dependent kinase 9 (Homo sapiens) (UniProt P50750); conditions: Compound concentration 1000.0 nM
[8] = biological target: Casein kinase I isoform epsilon (Homo sapiens) (UniProt P49674); conditions: Compound concentration 1000.0 nM
[9] = biological target: Casein kinase II subunit alpha (Homo sapiens) (UniProt P68400); conditions: Compound concentration 1000.0 nM
[10] = test system: Epidermal growth factor receptor (Homo sapiens), P00533 [G719C]; conditions: Compound concentration 1000.0 nM
[11] = biological target: Ephrin type-A receptor 3 (Homo sapiens) (UniProt P29320); conditions: Compound concentration 1000.0 nM
[12] = test system: Receptor-type tyrosine-protein kinase FLT3 (Homo sapiens), P36888 [D835H]; conditions: Compound concentration 1000.0 nM
[13] = test system: Receptor-type tyrosine-protein kinase FLT3 (Homo sapiens), P36888 [D835V]; conditions: Compound concentration 1000.0 nM
[14] = test system: Receptor-type tyrosine-protein kinase FLT3 (Homo sapiens), P36888 [K663Q]; conditions: Compound concentration 1000.0 nM
[15] = test system: Mast/stem cell growth factor receptor Kit (Homo sapiens), P10721 [D816H]; conditions: Compound concentration 1000.0 nM
[16] = test system: Mast/stem cell growth factor receptor Kit (Homo sapiens), P10721 [V559D,T670I]; conditions: Compound concentration 1000.0 nM
[17] = biological target: LIM domain kinase 2 (Homo sapiens) (UniProt P53671); conditions: Compound concentration 1000.0 nM
[18] = biological target: Serine/threonine-protein kinase MAK (Homo sapiens) (UniProt P20794); conditions: Compound concentration 1000.0 nM
[19] = biological target: Mitogen-activated protein kinase kinase kinase 3 (Homo sapiens) (UniProt Q99759); conditions: Compound concentration 1000.0 nM
[20] = biological target: MAP kinase-activated protein kinase 5 (Homo sapiens) (UniProt Q8IW41); conditions: Compound concentration 1000.0 nM
[21] = biological target: Hepatocyte growth factor receptor (Homo sapiens) (UniProt P08581); conditions: Compound concentration 1000.0 nM
Sequence of Hepatocyte growth factor receptor (Homo sapiens) (P08581 whole entry): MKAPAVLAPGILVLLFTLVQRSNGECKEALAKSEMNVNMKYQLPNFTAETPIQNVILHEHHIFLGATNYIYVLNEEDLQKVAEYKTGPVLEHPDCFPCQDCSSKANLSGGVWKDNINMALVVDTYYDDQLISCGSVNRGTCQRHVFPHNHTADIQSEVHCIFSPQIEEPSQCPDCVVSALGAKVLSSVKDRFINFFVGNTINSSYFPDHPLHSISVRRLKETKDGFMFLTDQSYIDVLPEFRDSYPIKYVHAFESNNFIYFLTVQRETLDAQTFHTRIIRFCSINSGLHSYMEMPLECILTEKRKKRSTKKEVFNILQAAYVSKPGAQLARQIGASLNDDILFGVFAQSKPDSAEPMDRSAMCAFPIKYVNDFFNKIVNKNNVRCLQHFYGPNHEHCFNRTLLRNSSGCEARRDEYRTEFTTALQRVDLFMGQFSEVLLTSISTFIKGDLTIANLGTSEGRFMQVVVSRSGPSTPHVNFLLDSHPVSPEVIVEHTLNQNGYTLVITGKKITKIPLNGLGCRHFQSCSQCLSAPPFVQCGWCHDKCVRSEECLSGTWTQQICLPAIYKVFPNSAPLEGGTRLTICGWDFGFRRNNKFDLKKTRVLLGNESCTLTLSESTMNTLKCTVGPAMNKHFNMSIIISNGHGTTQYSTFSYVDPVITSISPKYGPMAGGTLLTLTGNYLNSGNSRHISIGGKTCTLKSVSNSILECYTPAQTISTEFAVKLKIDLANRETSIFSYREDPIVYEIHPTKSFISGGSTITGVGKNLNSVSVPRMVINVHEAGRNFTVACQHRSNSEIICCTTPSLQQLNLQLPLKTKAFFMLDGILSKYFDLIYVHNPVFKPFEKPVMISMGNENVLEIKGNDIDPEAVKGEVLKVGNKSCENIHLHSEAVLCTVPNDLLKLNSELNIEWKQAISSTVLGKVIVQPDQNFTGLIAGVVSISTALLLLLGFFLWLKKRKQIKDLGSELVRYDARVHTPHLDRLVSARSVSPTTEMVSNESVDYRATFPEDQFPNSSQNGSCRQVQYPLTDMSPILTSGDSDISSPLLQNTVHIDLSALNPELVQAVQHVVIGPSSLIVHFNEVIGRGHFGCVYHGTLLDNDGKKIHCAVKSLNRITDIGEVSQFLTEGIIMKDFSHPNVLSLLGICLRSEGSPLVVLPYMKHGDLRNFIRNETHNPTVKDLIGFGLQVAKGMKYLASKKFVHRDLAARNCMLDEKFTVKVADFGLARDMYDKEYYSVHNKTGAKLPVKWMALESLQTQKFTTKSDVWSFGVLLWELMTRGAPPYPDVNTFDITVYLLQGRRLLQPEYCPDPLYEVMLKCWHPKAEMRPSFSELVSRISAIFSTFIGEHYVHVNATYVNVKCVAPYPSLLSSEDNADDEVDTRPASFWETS

[22] = biological target: Mitogen-activated protein kinase kinase kinase 11 (Homo sapiens) (UniProt Q16584); conditions: Compound concentration 1000.0 nM
[23] = biological target: Myosin light chain kinase family member 4 (Homo sapiens) (UniProt Q86YV6); conditions: Compound concentration 1000.0 nM
[24] = biological target: Mitogen-activated protein kinase kinase kinase 14 (Homo sapiens) (UniProt Q99558); conditions: Compound concentration 1000.0 nM
Sequence of Mitogen-activated protein kinase kinase kinase 14 (Homo sapiens) (Q99558 whole entry, looked up): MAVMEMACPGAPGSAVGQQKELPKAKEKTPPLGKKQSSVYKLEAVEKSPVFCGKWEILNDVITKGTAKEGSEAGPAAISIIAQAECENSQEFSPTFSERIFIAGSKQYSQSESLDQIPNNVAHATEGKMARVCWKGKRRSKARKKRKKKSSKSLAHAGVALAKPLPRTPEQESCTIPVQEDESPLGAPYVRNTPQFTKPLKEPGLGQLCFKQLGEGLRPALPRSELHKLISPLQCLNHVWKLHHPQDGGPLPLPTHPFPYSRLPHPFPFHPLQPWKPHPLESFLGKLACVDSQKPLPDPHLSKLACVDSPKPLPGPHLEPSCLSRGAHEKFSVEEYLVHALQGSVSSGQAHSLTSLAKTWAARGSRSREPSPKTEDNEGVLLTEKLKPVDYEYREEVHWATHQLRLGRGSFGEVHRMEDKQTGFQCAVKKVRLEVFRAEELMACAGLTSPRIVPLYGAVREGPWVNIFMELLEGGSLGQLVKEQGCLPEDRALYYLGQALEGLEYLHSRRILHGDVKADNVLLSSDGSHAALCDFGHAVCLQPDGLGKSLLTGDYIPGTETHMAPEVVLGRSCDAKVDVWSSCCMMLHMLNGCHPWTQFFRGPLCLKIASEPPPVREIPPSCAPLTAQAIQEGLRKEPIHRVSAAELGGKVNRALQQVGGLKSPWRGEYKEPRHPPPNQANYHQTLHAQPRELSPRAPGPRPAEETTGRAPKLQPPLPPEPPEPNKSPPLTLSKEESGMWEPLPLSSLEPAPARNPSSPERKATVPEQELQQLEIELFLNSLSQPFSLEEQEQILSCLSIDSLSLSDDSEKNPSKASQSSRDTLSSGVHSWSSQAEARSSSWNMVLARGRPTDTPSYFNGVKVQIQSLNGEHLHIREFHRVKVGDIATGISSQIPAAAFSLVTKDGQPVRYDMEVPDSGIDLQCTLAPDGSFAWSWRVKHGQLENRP

[25] = biological target: Serine/threonine-protein kinase NLK (Homo sapiens) (UniProt Q9UBE8); conditions: Compound concentration 1000.0 nM
[26] = biological target: Mitogen-activated protein kinase 14 (Homo sapiens, UniProt Q16539); conditions: Compound concentration 1000.0 nM
Sequence of Mitogen-activated protein kinase 14 (Q16539 whole entry): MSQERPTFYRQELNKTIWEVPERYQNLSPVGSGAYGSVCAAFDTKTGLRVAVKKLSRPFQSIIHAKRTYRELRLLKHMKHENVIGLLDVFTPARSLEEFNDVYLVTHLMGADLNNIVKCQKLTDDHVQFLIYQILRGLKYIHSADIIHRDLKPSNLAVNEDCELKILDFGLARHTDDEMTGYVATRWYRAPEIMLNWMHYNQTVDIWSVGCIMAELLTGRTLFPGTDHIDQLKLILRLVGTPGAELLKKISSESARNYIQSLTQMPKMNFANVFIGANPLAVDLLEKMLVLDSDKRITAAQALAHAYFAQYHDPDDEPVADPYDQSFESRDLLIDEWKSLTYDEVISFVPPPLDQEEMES

[27] = biological target: Serine/threonine-protein kinase PAK 3 (Homo sapiens) (UniProt O75914); conditions: Compound concentration 1000.0 nM
Sequence of Serine/threonine-protein kinase PAK 3 (Homo sapiens) (O75914 whole entry, looked up): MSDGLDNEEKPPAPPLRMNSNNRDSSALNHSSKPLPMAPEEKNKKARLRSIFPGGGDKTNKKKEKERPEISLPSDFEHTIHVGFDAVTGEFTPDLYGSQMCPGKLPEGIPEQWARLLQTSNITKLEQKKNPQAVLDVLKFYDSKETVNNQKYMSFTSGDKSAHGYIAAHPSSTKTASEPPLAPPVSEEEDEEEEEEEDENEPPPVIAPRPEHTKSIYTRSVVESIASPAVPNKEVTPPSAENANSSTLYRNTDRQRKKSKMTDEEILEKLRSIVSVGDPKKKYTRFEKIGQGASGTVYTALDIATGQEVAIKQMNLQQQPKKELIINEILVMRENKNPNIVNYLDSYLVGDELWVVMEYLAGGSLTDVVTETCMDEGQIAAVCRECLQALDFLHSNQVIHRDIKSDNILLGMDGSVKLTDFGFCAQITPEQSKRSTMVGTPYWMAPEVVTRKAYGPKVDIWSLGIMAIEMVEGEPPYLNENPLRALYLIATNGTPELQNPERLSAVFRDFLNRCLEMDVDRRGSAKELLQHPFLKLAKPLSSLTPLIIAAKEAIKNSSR

[28] = biological target: 3-phosphoinositide-dependent protein kinase 1 (Homo sapiens) (UniProt O15530); conditions: Compound concentration 1000.0 nM
[29] = test system: Phosphatidylinositol 4,5-bisphosphate 3-kinase catalytic subunit alpha isoform (Homo sapiens), P42336 [Q546K]; conditions: Compound concentration 1000.0 nM
[30] = biological target: cAMP-dependent protein kinase catalytic subunit alpha (Homo sapiens) (UniProt P17612); conditions: Compound concentration 1000.0 nM
[31] = biological target: Protein kinase C theta type (Homo sapiens) (UniProt Q04759); conditions: Compound concentration 1000.0 nM
[32] = biological target: Interferon-induced, double-stranded RNA-activated protein kinase (Homo sapiens) (UniProt P19525); conditions: Compound concentration 1000.0 nM
[33] = biological target: Serine/threonine-protein kinase SIK1 (Homo sapiens) (UniProt P57059); conditions: Compound concentration 1000.0 nM
[34] = biological target: SRSF protein kinase 1 (Homo sapiens) (UniProt Q96SB4); conditions: Compound concentration 1000.0 nM
[35] = biological target: Serine/threonine-protein kinase 35 (Homo sapiens) (UniProt Q8TDR2); conditions: Compound concentration 1000.0 nM
[36] = biological target: BDNF/NT-3 growth factors receptor (Homo sapiens) (UniProt Q16620); conditions: Compound concentration 1000.0 nM
Sequence of BDNF/NT-3 growth factors receptor (Homo sapiens) (Q16620 32-822 limits assumed): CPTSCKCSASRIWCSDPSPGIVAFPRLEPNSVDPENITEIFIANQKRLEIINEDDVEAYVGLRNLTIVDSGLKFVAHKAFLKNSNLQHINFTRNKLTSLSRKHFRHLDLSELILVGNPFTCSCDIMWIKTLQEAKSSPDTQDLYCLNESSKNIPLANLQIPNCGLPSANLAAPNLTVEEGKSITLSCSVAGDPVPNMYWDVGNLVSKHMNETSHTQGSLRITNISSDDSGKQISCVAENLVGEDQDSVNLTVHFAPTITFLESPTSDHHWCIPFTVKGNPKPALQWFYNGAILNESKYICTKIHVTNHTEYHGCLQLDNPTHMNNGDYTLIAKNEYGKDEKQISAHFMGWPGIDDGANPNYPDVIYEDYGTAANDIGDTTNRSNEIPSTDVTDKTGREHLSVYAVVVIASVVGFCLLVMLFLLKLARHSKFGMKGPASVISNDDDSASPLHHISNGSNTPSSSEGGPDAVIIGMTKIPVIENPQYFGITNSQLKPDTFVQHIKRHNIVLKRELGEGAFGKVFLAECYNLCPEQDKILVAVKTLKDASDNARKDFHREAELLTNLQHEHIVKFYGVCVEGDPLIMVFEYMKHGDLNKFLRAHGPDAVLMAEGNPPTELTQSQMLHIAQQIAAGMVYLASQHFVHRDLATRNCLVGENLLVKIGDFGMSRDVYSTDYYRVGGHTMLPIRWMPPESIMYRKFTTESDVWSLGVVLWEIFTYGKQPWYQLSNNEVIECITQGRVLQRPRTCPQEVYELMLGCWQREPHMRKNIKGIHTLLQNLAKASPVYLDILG

[37] = biological target: Testis-specific serine/threonine-protein kinase 3 (Homo sapiens) (UniProt Q96PN8); conditions: Compound concentration 1000.0 nM
Sequence of Testis-specific serine/threonine-protein kinase 3 (Homo sapiens) (Q96PN8 whole entry): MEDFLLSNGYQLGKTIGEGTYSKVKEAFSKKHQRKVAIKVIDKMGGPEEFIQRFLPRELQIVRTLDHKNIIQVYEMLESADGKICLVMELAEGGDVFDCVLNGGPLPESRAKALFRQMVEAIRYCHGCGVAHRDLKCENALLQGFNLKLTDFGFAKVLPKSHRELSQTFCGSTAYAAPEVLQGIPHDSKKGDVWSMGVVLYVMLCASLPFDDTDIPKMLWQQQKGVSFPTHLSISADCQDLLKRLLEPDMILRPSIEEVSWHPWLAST

[38] = biological target: Mitogen-activated protein kinase kinase kinase 20 (Homo sapiens) (UniProt Q9NYL2); conditions: Compound concentration 1000.0 nM
[39] = biological target: 5-hydroxytryptamine receptor 1D (Homo sapiens) (UniProt P28221); conditions: Compound concentration 10.0 uM
[40] = biological target: T1, D(1B) dopamine receptor; conditions: Compound concentration 10.0 uM
[41] = biological target: Histamine H4 receptor (Homo sapiens) (UniProt Q9H3N8); conditions: Compound concentration 10.0 uM
[42] = biological target: Beta-1 adrenergic receptor (Homo sapiens) (UniProt P08588); conditions: Compound concentration 10.0 uM
[43] = biological target: Prostaglandin E2 receptor EP3 subtype (Homo sapiens, UniProt P43115); assay: Prostanoid EP3 Eurofins-Panlabs radioligand binding assay; set-up: ligand concentration 0.5 nM, non-specific ligand with concentration 10 µM Prostaglandin EŽ2 (PGE2), incubation time 60 min, incubation temperature 25 °C
[44] = biological target: B1 bradykinin receptor (Homo sapiens) (UniProt P46663); assay: Bradykinin B1 Eurofins-Panlabs radioligand binding assay; conditions: Compound concentration 10.0 uM

T1 sequence (P21918 whole entry): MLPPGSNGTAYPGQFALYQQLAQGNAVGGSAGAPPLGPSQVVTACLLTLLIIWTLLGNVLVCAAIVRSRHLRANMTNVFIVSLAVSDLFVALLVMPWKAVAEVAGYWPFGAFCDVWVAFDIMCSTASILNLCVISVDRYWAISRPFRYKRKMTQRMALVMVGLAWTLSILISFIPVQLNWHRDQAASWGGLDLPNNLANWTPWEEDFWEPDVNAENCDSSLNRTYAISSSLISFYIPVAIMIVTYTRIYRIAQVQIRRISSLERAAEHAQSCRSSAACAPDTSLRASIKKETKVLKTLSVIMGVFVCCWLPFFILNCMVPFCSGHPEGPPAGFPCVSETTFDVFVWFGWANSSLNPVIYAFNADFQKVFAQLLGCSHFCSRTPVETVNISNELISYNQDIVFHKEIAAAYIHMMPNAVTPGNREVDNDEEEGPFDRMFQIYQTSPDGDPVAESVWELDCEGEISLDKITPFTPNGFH

SMILES: Cc1c(C(=O)O)cc(-c2ccc(C3CCNCC3)cc2)c2ccc(-c3ccc(C(F)(F)F)cc3)cc12 [PPTN-NC]
- Ki [1]: 2860 nM
- residual activity [2]: 100%
- residual activity [3]: 100%
- residual activity [4]: 100%
- residual activity [5]: 100%
- residual activity [6]: 97%
- residual activity [7]: 100%
- residual activity [8]: 96%
- residual activity [9]: 100%
- residual activity [10]: 100%
- residual activity [11]: 100%
- residual activity [12]: 90%
- residual activity [13]: 100%
- residual activity [14]: 100%
- residual activity [15]: 100%
- residual activity [16]: 100%
- residual activity [17]: 100%
- residual activity [18]: 91%
- residual activity [19]: 98%
- residual activity [20]: 100%
- residual activity [21]: 100%
- residual activity [22]: 100%
- residual activity [23]: 100%
- residual activity [24]: 100%
- residual activity [25]: 100%
- residual activity [26]: 100%
- residual activity [27]: 100%
- residual activity [28]: 100%
- residual activity [29]: 100%
- residual activity [30]: 100%
- residual activity [31]: 100%
- residual activity [32]: 100%
- residual activity [33]: 94%
- residual activity [34]: 100%
- residual activity [35]: 100%
- residual activity [36]: 100%
- residual activity [37]: 93%
- residual activity [38]: 100%
- inhibition [39]: 30.1%
- inhibition [40]: 58.1%
- inhibition [41]: -4.71%
- inhibition [42]: 29.2%

SMILES: O=C(O)c1cc(-c2ccc(C3CCNCC3)cc2)c2ccc(-c3ccc(C(F)(F)F)cc3)cc2c1 [PPTN]
- Ki [1]: 2820 nM
- IC50 [43]: 9270 nM
- inhibition [44]: 12%
- residual activity [2]: 100%
- residual activity [3]: 100%
- residual activity [4]: 100%
- residual activity [5]: 100%
- residual activity [6]: 82%
- residual activity [7]: 100%
- residual activity [8]: 100%
- residual activity [9]: 100%
- residual activity [10]: 100%
- residual activity [11]: 100%
- residual activity [12]: 81%
- residual activity [13]: 100%
- residual activity [14]: 100%
- residual activity [15]: 100%
- residual activity [16]: 100%
- residual activity [17]: 100%
- residual activity [18]: 100%
- residual activity [19]: 83%
- residual activity [20]: 100%
- residual activity [21]: 100%
- residual activity [22]: 100%
- residual activity [23]: 94%
- residual activity [24]: 100%
- residual activity [25]: 100%
- residual activity [26]: 100%
- residual activity [27]: 100%
- residual activity [28]: 100%
- residual activity [29]: 100%
- residual activity [30]: 100%
- residual activity [31]: 100%
- residual activity [32]: 100%
- residual activity [33]: 100%
- residual activity [34]: 86%
- residual activity [35]: 100%
- residual activity [36]: 100%
- residual activity [37]: 100%
- residual activity [38]: 100%
- inhibition [39]: 33.6%
- inhibition [40]: 73.7%
- inhibition [41]: -6.7%
- inhibition [42]: 24.7%
